Source: US8044206B2, “Nitrogen—containing heterocyclic derivatives having 2,6-disubstituted styryl” (Astellas Pharma Inc., priority 2003, dated 2011)
Where a name gives a salt, the structure may show the parent alone.

Assays:
[1] = test system: mice with streptozotocin (STZ)-induced diabetic neuropathy; experiment: Analgesic action in mice with streptozotocin (STZ)-induced diabetic neuropathy, tail pinch test; assay type: in vivo; conditions: male ICR mice, Day 15 after STZ, oral 30 mg/kg, 45 minutes prior to measurement, latency after minus before administration
Method: Representative compounds of Compound (I) of the present invention were assessed for the analgesic action in mice with streptozotocin (STZ)-induced diabetic neuropathy to confirm the effect on neuropathic pain. The assessment was performed by the method of Kamei et al. (Pharmacology Biochemistry & Behavior 39, 541-544, 1991) with some modifications.
Male ICR mice of 4 weeks old were intraperitoneally injected with 200 mg/kg weight of STZ to prepare mice with diabetic neuropathic pain. The analgesic action was assessed by the tail pinch test. […] On Day 14 following the STZ injection, a pretest was carried out to determine the response latency before the administration of a test compound. Only the animals showing not longer than 3 seconds of the response latency in the pretest were used for the test compound assessment on the following day (Day 15 after STZ injection).
In the test compound assessment, the response latency after the administration of a test compound was measured. The test compound was orally administered at a dose of 30 mg/kg, 45 minutes prior to the response latency measurement
The analgesic action of a test compound is expressed as prolongation of latency (in seconds) calculated by the formula: (response latency after administration of a test compound)−(response latency before administration of a test compound).

[2] = test system: sodium channel; experiment: [14C] guanidine uptake induced by veratridine in rat cerebral cortex primary neurons (sodium channel inhibitory action); assay type: cell-based; conditions: [14C] guanidine uptake induced by 100 μM veratridine, specific uptake = portion inhibited by 1 mM mexiletine, read-out: Na Channel Inhibition IC50
Method: The [^14C] guanidine uptake experiment was performed by the method of Bonisch et al. (British Journal of Pharmacology 108, 436-442, 1993) with some modifications. The [^14C] guanidine was used as a sodium tracer, and the inhibitory activity on uptake of [^14C] guanidine induced by veratridine as a sodium channel activator into rat cerebral cortex primary neurons was measured.
Pregnant rats (Wistar, female, 19 days of gestation) were anesthetized with ether. The animals were bled to death by giving incision through the carotid artery. The fetuses were taken out of the pregnant rats and after ethanol sterilization, the cerebral cortex was removed from the fetuses. The cerebral cortex was digested with papain and dispersed in culture medium, followed by plating on a poly-L-lysine-coated 96-well white plate at a density of 2.5×10^5 cells/well. Incubation was performed in a CO2 incubator (37° C., 5% CO2) for 2 days.
After each well was washed once with an assay buffer (135 mM choline Cl, 5 mM KCl, 1 mM MgSO4, 5.5 mM glucose, 1 mg/mL BSA, 10 mM Hepes-Tris, pH 7.4), a fresh assay buffer was added to the well, followed by incubation at 25° C. for 10 minutes. Then, a reaction solution (a test compound, [^14C] guanidine and 100 μM, veratridine) was replaced for the buffer, followed by incubation at 25° C. for 15 minutes. The reaction was terminated by washing 3 times with a cold wash buffer (135 mM NaCl, 5 mM KCl, 1 mM MgSO4, 10 mM Hepes-Tris, pH 7.4). To each well, 17 μl of 0.1N NaOH was added. After agitation, 100 μl of scintillator was added to the well and further agitation was continued. The radioactivity was quantified by a liquid scintillation counter. In each experiment, the sodium channel-specific uptake of the whole uptake was designated as portion that was inhibited by 1 mM mexiletine. The action of the test compound on sodium channel is expressed as 50% inhibition concentration (IC50) based on the specific uptake.

[3] = test system: L5/L6 spinal nerve ligation rats; experiment: animal or person; conditions: Rattus norvegicus, po, read-out: anti-allodynia ED50
Method: The the assessment was performed by the method of Kim and Chung (Pain 50, 355-363, 1992) with some modifications.
Under pentobarbital anesthesia, male SD rats of 5 or 6 weeks old were given surgery to ligate both the left L5 and L6 lumbar nerves tightly with silk threads. For the assessment of analgesic action, the von Frey hair test was adopted. That is, the animal's hindpaw was picked with hair and the lowest strength of hair for limb withdrawal response was designated as a response threshold (log gram) to mechanical stimulation. […] On the day before the assessment of a test compound, the response threshold before administration of a test compound was measured. The animals were divided into 4 to 5 groups so that differences in the mean values of response thresholds before administration among the groups and variation within groups become small. In the assessment of a test compound, the response threshold after administration of the test compound was measured. The test compound was orally given 30 minutes before measurement of the response threshold. The anti-allodynia action potency of a test compound is expressed as ED50. In the calculation of the ED50, the thresholds of ipsilateral and contralateral paws in the solvent group were designated as 0% and 100%, respectively.

SMILES	Anti-STZ-induced pain after oral administration: Latency prolongation [1]	IC50 [2] [µM]	ED50 [3] [mg/kg]
Cc1cccc(C)c1/C=C/C1CCNCC1 [Example 39, 4-[(E)-2-(2,6-dimethylphenyl)vinyl]piperidine monohydrochloride]	2.9 s	16	
Cc1cccc(Cl)c1/C=C/C1CCNCC1 [Example 37, 4-[(E)-2-(2-chloro-6-methylphenyl)vinyl]piperidine hydrochloride]	1.9 s	10	
Cc1cccc(C)c1/C=C/C1CCCNCC1 (stereo not shown) [Example 63, 4-[(E)-2-(2,6-dimethylphenyl)vinyl]azepane]	3.3 s	10	
Cc1cccc(C)c1/C=C/C1CCCN(C)C1 (stereo not shown) [Example 71, 3-[(E)-2-(2,6-dimethylphenyl)vinyl]-1-methylpiperidine]	2.3 s	7.7	
Cc1cccc(C)c1OCC(C)N (stereo not shown) [Mexiletine, reference compound]	about 3 seconds	70	~70
Cc1cc(N(C)C)cc(C)c1/C=C/C1CCNCC1 [Example 53, N,N,3,5-tetramethyl-4-[(E)-2-piperidin-4-ylvinyl]aniline]	4.2 s	19	
Cc1cccc(C)c1/C=C/C1CCN(CCN(C)C)CC1 [Example 74, (2-{4-[(E)-2-(2,6-dimethylphenyl)vinyl]piperidin-1-yl}ethyl)dimethylamine]	1.8 s	7.2	
Cc1cccc(C)c1/C=C/C12CCN(CC1)CC2 [Example 24, 4-[(E)-2-(2,6-dimethylphenyl)vinyl]quinuclidine]	2.6 s	10	
Cc1cccc(C)c1/C=C/C1CCN(C(=O)CN2CCN(C(=O)c3cccnc3)CC2)CC1 [Example 105, 1-(2-{4-[(E)-2-(2,6-dimethylphenyl)vinyl]piperidin-1-yl}-2-oxoethyl)-4-(pyridin-3-ylcarbonyl)piperazine]	1.8 s		
Cc1cccc(C)c1/C=C/CC1CCNCC1 [Example 65, 4-[(2E)-3-(2,6-dimethylphenyl)prop-2-en-1-yl]piperidine]	2.3 s	11	
Cc1cccc(C)c1/C=C/C1CCN(C(=O)C2(N)CCC2)CC1 [Example 110, [1-({4-[(E)-2-(2,6-dimethylphenyl)vinyl]piperidin-1-yl}carbonyl)cyclobutyl]amine]	2.1 s		
Cc1cccc(C)c1/C=C\C1CCNCC1 [Example 38, 4-[(Z)-2-(2,6-dimethylphenyl)vinyl]piperidine]	3.1 s	6	
Cc1cccc(C)c1/C=C/C1CCCCN1 (stereo not shown) [Example 62, 2-[(E)-2-(2,6-dimethylphenyl)vinyl]piperidine monohydrochloride]	2.3 s	9.2	
